Laboratory results published in patent publication US20260209220A1, “SUBSTITUTED TETRAHYDROPYRROLO-PYRIDINONE COMPOUNDS AND THEIR USE IN TREATING MEDICAL CONDITIONS” (Karuna Therapeutics, Inc., priority 2022, published 2026).

Experiments:
hM4 receptors = biological target: T1, hM4 receptors (Homo sapiens, UniProt P08173); assay: Human M4 PAM PERK assay (CHO cells, TR-FRET, with EC20 acetylcholine); format: cell-based
T1 construct: expressed in transfected cells; host or cells: CHO cells
T1 sequence (P08173 1-479): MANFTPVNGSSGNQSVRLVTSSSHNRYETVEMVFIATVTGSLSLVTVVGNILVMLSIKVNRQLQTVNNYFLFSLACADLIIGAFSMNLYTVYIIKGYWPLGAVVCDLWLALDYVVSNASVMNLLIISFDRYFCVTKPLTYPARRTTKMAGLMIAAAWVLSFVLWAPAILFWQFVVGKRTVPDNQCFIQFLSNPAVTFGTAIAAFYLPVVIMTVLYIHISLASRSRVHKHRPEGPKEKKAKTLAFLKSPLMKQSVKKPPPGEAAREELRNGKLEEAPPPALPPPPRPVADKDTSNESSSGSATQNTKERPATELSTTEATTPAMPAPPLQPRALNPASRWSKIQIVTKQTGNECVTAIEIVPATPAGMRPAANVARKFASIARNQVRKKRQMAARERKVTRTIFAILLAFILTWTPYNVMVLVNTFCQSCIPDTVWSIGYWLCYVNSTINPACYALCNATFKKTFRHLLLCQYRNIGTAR
Method in brief: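 CHO cells expressing human or rat M4, serum-starved 4 h, then given compound (10-point, 10 μM top, ½-log) with EC20 acetylcholine (10 nM final) for 5 min at 37 °C. Lysates assayed for phospho-ERK by TR-FRET after 2 h detection at RT.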

human M4 receptor = biological target: T2, human M4 receptor (Homo sapiens, UniProt P08173); assay: M4 GTPγS PAM assay (CHO-K1 membranes, 35S-GTP binding, with EC20 acetylcholine); format: biochemical; conditions: with EC20 acetylcholine (40 nM)
T2 construct: expressed in transfected cells; host or cells: CHO-K1 cells (membranes)
T2 sequence (P08173 1-479): T1 sequence (P08173 1-479)
Method in brief: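 Membranes from CHO-K1 cells stably expressing human M4 ([…]) in 20 mM HEPES, 10 mM MgCl2, 100 mM NaCl, with 0.1 μM GDP final, were preincubated with compound 10-15 min at RT. Acetylcholine at EC20 (40 nM final) was added for 10-15 min, then 0.4 nM 35S-GTP solution for 1 h at RT. Filter-bound radioactivity was counted.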

EC50 (hM4 receptors)	EC50 (human M4 receptor)	Compound
50 to 200 nM	< 50 nM	Cc1cc(=O)n(C)c2c1CN(C(=O)CC1CN(c3cc(F)cc(C4CC4)c3)C1)C2 [Compound I-4]
50 to 200 nM	50 to 200 nM	Cc1cc(=O)n(C)c2c1CN(C(=O)CC1CN(c3cccc(F)c3F)C1)C2 [Compound I-14]
< 50 nM	< 50 nM	Cc1c2c(n(C)c(=O)c1C)CN(C(=O)CC1CN(c3ccnc(C(F)(F)F)c3)C1)C2 [Compound I-42, 1,3,4-Trimethyl-6-(2-(1-(2-(trifluoromethyl)pyridin-4-yl)azetidin-3-yl)acetyl)-1,5,6,7-tetrahydro-2H-pyrrolo[3,4-b]pyridin-2-one]
< 50 nM	< 50 nM	Cc1c2c(n(C)c(=O)c1F)CN(C(=O)CC1CN(c3ccc(C4CC4)c(F)c3)C1)C2 [Compound I-88]
